The numbers were not newly measured in patent US20040067256A1, “Novel modified release formulation” (priority 2001, published 2004), which cites them from elsewhere.

For this data set the following is noted: ambient temperature of 22-25° C.

Molecules are shown by their SMILES. Like-named read-outs stand apart in the source and are kept apart here.

As for `CC(O)(CS(=O)(=O)c1ccc(F)cc1)C(=O)Nc1ccc(C#N)c(C(F)(F)F)c1` (racemic) [bicalutamide, 4′-cyano-α′,α′,α′-trifluoro-3-(4-fluorophenylsulphonyl)-2-hydroxy-2-methylpropiono-m-toluidide], the water-solubility result (physiological pH) is listed as “about 0.0046 mg/ml”.

Take `CCOC(=O)C1=C(C)NC(C)=C(C(=O)OC)C1c1cccc(Cl)c1Cl` (centres unmarked) [Felodipine, 2,6-dimethyl-4-(2,3-dichlorophenyl)-1,4-dihydropyridine-3,5-dicarboxylic acid-3-methyl ester-5-ethyl ester]: the water-solubility entry is on record as “about 0.5 μg/ml”.
